Measured values as given in patent publication US20030051262A1, “Animal models for neurodegenerative disease” (priority 1999, published 2003).
Peptide text beside a SMILES is read from it.

What was measured:
[1] = tested on: medial septum/vertical limb of the diagonal band (S/DB); assay: Histology of septal region after injection into S/DB; assay type: in vivo, rat; conditions: for histological appearance of the septal area: 2 μl of 33 mM into S/DB, Example 2
Method: (§1) The experimental group (n=6 rats) received an injection of AChE peptide into the medial septum/vertical limb of the diagonal band (S/DB). Control rats (n=6 rats) received an equal amount of the vehicle, water, in the same way, while another group (n=5 rats) received an injection of the reference neurotoxin NMDA at an equivalent dose to that of AChE peptide (2 μl of 33 mM). Each injection was given slowly over 15 minutes through a 34 gauge stainless steel injection needle coupled by polyethylene tubing to a 10 μl Hamilton syringe. Co-ordinates used on the stereotaxic instrument (Kopf) were 0.7 mm anterior to bregma, 1.0 mm lateral to midline and 6.5 mm from skull surface at bregma. The incisor bar was set at −0.5 mm for all rats, resulting in approximately a level skull surface between the bregma and lambda sutures. The arm of the stereotaxic instrument was angled at 10 degrees to vertical to avoid damage to the sagittal sinus.
After a final weighing, rats were killed by stunning followed by decapitation. The hippocampus and cingulate/secondary motor cortex were rapidly removed and stored frozen at −80 degrees Celsius. The block of brain anterior to the hippocampus was placed in 30% sucrose formalin and left to fix for at least a week prior to sectioning on a microtome and staining with cresyl violet. Microscopical brain examination was subsequently performed as in earlier experiments.
Wistar rats were anaesthetised and injected as described in Example 2, with one of the following. AChE peptide, the equivalent peptide from BuChE, a scrambled version of the AChE peptide: HSWRAEVFHKYWSM, NMDA and water as a control. The number of rats in each group was between four and five.
Brain examination was performed as described in Example 2.

[2] = Body weight and condition after high-dose hippocampal injection; assay type: in vivo, rat; conditions: higher dose (68 mM, 1 μl) into hippocampus, one of two rats, 5 days after surgery
Method: (§2) Since the concentration of NMDA used to produce experimental neural destruction (as a tool in experimental psychology to examine the function of a particular brain region) is much higher (typically 68 mM) a small number of rats were injected with this larger amount, in a volume of 1 μl, in comparison with an equivalent amount of AChE peptide.
One of the two rats given AChE peptide at this higher dose looked very sick 5 days after the surgery and was therefore deeply anaesthetised and the brain prepared for microscopy. […] The other rat survived 11 days until it was finally anaesthetised, but it too lost some weight. This supported informal observations from the earlier, low dose experiment that AChE peptide treated rats might lose more weight than is normal after such surgery.

mice = assay: Injection of AChE peptide into mice; assay type: in vivo
rat hippocampus = assay: Direct injection into rat hippocampus, histological effects (length of hippocampal cell layers destroyed); assay type: in vivo; conditions: for extent of hippocampal damage: 68 mM in a volume of 1 μl into hippocampus
Method: AChE peptide was injected into rat hippocampus and subsequently the brains were examined under a light microscope. The hippocampus was-chosen as the most suitable brain structure in which to show effects of AChE peptide as it is very vulnerable to neurotoxins and damage from other causes such as ischaemia. Post mortem histological. examination or pre mortem brain scans reveal prominent decay of the hippocampus in Alzheimer brains.
Male Wistar or Dark Agouti (DA) rats were anaesthetised with Avertin and injected with 0.5 μl of 2 mM AChE peptide (DA rats received 1 μl of 1 mM) in the right hippocampus. An equivalent control injection was made in the left hippocampus. After recovery from the anaesthetic and a few days in their home cages rats were deeply anaesthetised and transcardially perfused with formalin preservative, the brains removed and prepared for microscopical examination. Sections of 50 μm were cut on a sliding microtome and stained with cresyl violet to show the nerve cells. The amount of neural damage was estimated by counting the length of hippocampal cell layers destroyed (quantified in terms of microscope graticule units).
A small number of injections were made into the hippocampus of DA rats with the reference neurotoxin NMDA (N-methyl D-aspartic acid) at an equivalent concentration to that of AChE peptide used above (1 μl of 1 mM).
as §2

[3] = Post-operative body weight after injection into S/DB; assay type: in vivo, rat; conditions: 2 μl of 33 mM into S/DB, Wistar rats, weighed daily
Method: as §1
Post-operatively the rats were weighed every day. Approximately two weeks after operation they were again food restricted and tested for performance on the T-maze.

[4] = tested on: medial septum/vertical limb of the diagonal band (S/DB); assay: Delayed non-matching to sample (DNMS) T-maze task after injection into S/DB; assay type: in vivo, rat; conditions: 2 μl of 33 mM into S/DB
From the text: Wistar rats (175-200 g) were received from the suppliers (Harlan UK) and acclimated to the laboratory for three weeks before being trained on a delayed non-matching to sample (DNMS) task on an elevated wooden T-maze. In this task they are mildly food deprived and receive food pellets with enhanced flavour and nutritional content as rewards.
The DNMS task capitalises on the rat's innate tendency to alternate which cross arm of the T-maze it runs along; this derives from its normal foraging behaviour, where returning to a place from which it has recently eaten all the food is unlikely to pay dividends.
Each rat is placed at the start of the stem of the T-maze and allowed to run to retrieve a food pellet at the end of one cross arm. Access to the other cross arm is blocked. This block is then removed and the rat returned to the start. Normal rats choose to go to the opposite arm to that recently visited on this free choice part of the trial. After being allowed to consume their reward (if a correct choice was made) they are returned to their home cage and their cagemate is then tested in the same way. Typically a squad of ten rats is run in a “round robin’ fashion, so up to fifteen minutes intervenes between one trial and the next. Normal rats excel at this task once initial training (chiefly to familiarise them with the new smells on the maze and the elevated position off the floor) is complete.
The rats in the present experiment were given forty trials on the T-maze, then divided into groups matched for performance (all were above 90% correct). They were returned to unlimited food for a few days before undergoing surgery under Avertin anaesthesia.
The experimental group (n=6 rats) received an injection of AChE peptide into the medial septum/vertical limb of the diagonal band (S/DB). Control rats (n=6 rats) received an equal amount of the vehicle, water, in the same way, while another group (n=5 rats) received an injection of the reference neurotoxin NMDA at an equivalent dose to that of AChE peptide (2 μl of 33 mM). […]

[5] = tested on: nucleus basalis of Meynert (NBM); assay: Serial choice reaction task (attention) after injection into NBM; assay type: in vivo, rat; conditions: bilateral 2 μl of 16.5 mM into NBM, light stimulus 1.0 s
Method: Testing for loss of cognitive function reminiscent of loss of such function associated with Alzheimer's Disease in humans was carried out using a serial choice reaction task, a preferred form of task for testing for attentional deficits, as described by Higgs et al. (Higgs, S., Deacon, R. M. J. & Rawlins, J. N. P., European Journal of Neuroscience (2000)12, 1781-1788).
A rat testing cubicle with a retractable lever on the front wall was employed as illustrated in FIG. 11. The back wall was concave with three food magazines, one in each corner and one in the centre. A light was present within each corner magazine. Magazine entries were recorded by microswitches attached to panels covering the entrances. The entire apparatus was computer-controlled.
Rats are trained to press the lever when it is presented. […] The rat will find a reward (a 45 mg food pellet) respectively in the left, right or centre magazine tray.
A cohort of rats were trained on the attentional task (light stimulus duration 1.0 s). When performance was stable, they were divided into three matched groups, each with seven or more rats. Under deep anaesthesia, each rat was placed in a stereotaxic frame, with the incisor bar set at −3 mm to give a level head. Bilateral-injections, each of 2 μl, were made into the NBM area (see FIG. 13). The control group of rats received injections of water. […]

[6] = tested on: choline acetyltransferase; assay: Cortical choline acetyltransferase (ChAT) level after NBM lesion; assay type: in vivo, rat; conditions: bilateral 2 μl of 16.5 mM into NBM
Method: After a period of post-operative testing, the rats were terminally anaesthetised and perfused intracardially with ice cold saline. The brain was removed and a portion of cortex (including the frontal, parietal and temporal areas, but excluding visual and cingulate cortex) was removed from each hemisphere and frozen. The remaining brain was preserved in formalin and subsequently coronally sectioned and stained with cresyl violet. The position and extent of the lesions was then determined by microscopical examination.
The frozen cortical tissue was used to determine the effectiveness of the NBM lesion. Using the method of Fonnum (J. Neurochem. (1975) 24, 407-409), the levels of the acetylcholine synthesising enzyme, choline acetyltransferase, (ChAT) were measured.
Since a proportion of this enzyme is due to the cholinergic innervation from the NBM, a decrease of ChAT would corroborate visualisation of a lesion at the site of injection in the NBM itself.

[7] = tested on: medial septum/vertical limb of the diagonal band (S/DB); assay: Locomotor activity cages after injection into S/DB; assay type: in vivo, rat; conditions: 2 μl of 33 mM into S/DB, two successive days
Method: as §1
After completion of T-maze testing rats were returned to a free feeding regimen before being tested on two successive days in standard locomotor activity cages. Each cage was equipped with two infrared beams to detect movement.

Compound | histological appearance of the septal area [1] | tissue loss in the medial septal region ([1]; Example 3, Wistar rats injected as in Example 2) | lesion size relative to NMDA ([1]; S/DB region) | time for lesion to form after introduction into S/DB ([1]; S/DB region, time course by MRI) | body weight after surgery [2] | neurotoxic effects in mice (mice) | extent of hippocampal damage (rat hippocampus) | mean units of damage (length of hippocampal cell layers destroyed) (rat hippocampus; Wistar rats, 0.5 μl of 2 mM in right hippocampus, P=0.008 vs control side) [units] | units of damage (length of hippocampal cell layers destroyed, microscope graticule units) (rat hippocampus; most symmetrically injected DA rat, 1 μl of 1 mM in right hippocampus) [units] | post-operative weight loss and recovery [3] | T-maze performance in subsequent trials ([4]; after first block of ten trials) | T-maze performance with 45 second delay between sample and choice ([4]; delay about 45 s) | T-maze performance, twenty massed trials ([4]; massed trials) | proportion of correct lever-light trials [5] | cholinergic loss in the cortex as measured by HPLC ChAT level [6] [%] | locomotor activity (ANOVA, group effect) [7] | histological examination of hippocampal brain sections (rat hippocampus; DA rats, 1 μl of 1 mM into hippocampus)
CSCC[C@H](NC(=O)[C@H](Cc1ccc(O)cc1)NC(=O)[C@H](CO)NC(=O)[C@H](CO)NC(=O)[C@H](Cc1c[nH]c2ccccc12)NC(=O)[C@H](CCCNC(=N)N)NC(=O)[C@H](Cc1c[nH]cn1)NC(=O)[C@H](Cc1ccccc1)NC(=O)[C@H](CCC(=O)O)NC(=O)[C@H](C)N)C(=O)N[C@H](C(=O)N[C@@H](Cc1c[nH]cn1)C(=O)N[C@@H](Cc1c[nH]c2ccccc12)C(=O)N[C@@H](CCCCN)C(=O)O)C(C)C [AChE peptide, AEFHRWSSYMVHWK] (H-AEFHRWSSYMVHWK-OH) | striking damage | Significant tissue loss | an order of magnitude larger | less than an hour | Severe body weight loss | Neurotoxic effects have also been observed | local hippocampal damage | 155.3 | 119 | statistically significantly slower than either controls or NMDA rats to recover their weight |  |  |  |  |  |  | 
CN[C@H](CC(=O)O)C(=O)O [NMDA, N-methyl D-aspartic acid] | only small effects |  |  |  |  |  | more widespread |  |  | lost more weight than controls | returned to control levels | non-significant decrease | little effect | didn't produce a significant reduction | 12.1 | not significantly different | small areas of neural damage
